Columns and labels:
[1] = target: Human CB2R (Cannabanoid receptor 2) (Homo sapiens (Human), UniProt P34972); test: CB-2 in vitro cAMP assay (HTRF); format: cell-based; conditions: mean where tested more than once
Source text: (§1) CB1 and CB2 receptors are Gi-coupled GPCR. Activation of CB1 and CB2 receptors results in a decrease in cAMP production. An inverse agonist of the CB1 or CB2 receptor results in the opposite effect, an increase of cAMP production. The principle of this assay is based on HTRF® technology (Homogeneous Time-Resolved Fluorescence). The method is a competitive immunoassay between native cAMP produced by cells and the cAMP labeled with the fluorophore d2. The tracer binding is quantified by a Mab anti-cAMP labeled with Eu3+TBP-NHS Cryptate (supplied as part of the assay kit). The specific signal (i.e. energy transfer) is inversely proportional to the concentration of cAMP in the standard or sample.
(§2) Human CB1R (Cannabanoid receptor 1) was stably transfected in HEK-293 cells (DiscoveRx, cat: 93-0200C1). Human CB2R (Cannabanoid receptor 2) was stably transfected in HEK-293 cells (DiscoveRx, cat: 93-0201C1). Cell cultures were maintained in media: DMEM (Invitrogen Cat#12430-054) supplemented with 10% HI FBS (Invitrogen Cat#16140-071), 1% L-glutamine (Invitrogen Cat#25030-081), 0.2 mg/ml Hygromycin B (Invitrogen Cat#10687-010), 600 μg/mL G418 (Invitrogen Cat#10131-035), and 1× Penn/Strep (Invitrogen 15140-122). After cell expansion, aliquots were cryo-stored in media containing 5% DMSO (Pierce Cat#20684).
(§3) One day prior to experiments media was warmed to 37° C. and the cryo-stored cells were thawed in a 37° C. water bath. The cells were then added to media (10× volume) and the mixture was centrifugated at 1000 RPM for 5 min. The supernate was removed and the cells were re-suspended in media. A sample of the cell suspension was evaluated on a Cedex XS automated cell counter (Innovatis Systems) to determine viable cells/ml. Additional media was added to the cells to achieve a final cell density of 4E5 cells/mL. The cells were then plated into 384 well PDL white solid bottom plates (Greiner, Cat#781945) at 20 μL per well using a Multidrop (Thermo Scientific). Cells were removed from Row P (location of cAMP standards). Two columns of cells were plated into a clear bottom 384 well PDL coated plate (Greiner, Cat#781944) to view confluence the day of the assay. The cell plates were lidded and stored for 15 minutes in a hood, then transferred to an incubator (37° C., 5% CO2, 95% humidity) overnight.
(§4) DMSO was added to all wells of 384 well V bottom polystyrene plate (Greiner, Cat#781280) except to columns 1 and 13, rows O and P and wells M13-M23 and N13-N23. Test compounds (60 μL, 10 mM) were added to Column 1 and 13 (A1 through N1 and A13 through L13). Test compounds were serially diluted 1/3 by transferring and mixing 20 μl sample with 40 μL DMSO.
(§5) DMSO (40 μL) was added to wells of 384 well V bottom polystyrene plate: O2 through O11, M14 through M23, N14 through N23, and O14 through O23. AM630 (also known as [6-iodo-2-methyl-1-[2-(4-morpholinyl)ethyl]-1H-indol-3-yl](4-methoxyphenyl)-methanone, Cayman Chemical, Cat#10006974) (60 μL, 10 mM) was added to O1; and 1-(2,4-dichlorophenyl)-7-[(4-fluorophenyl)methylene]-4,5,6,7-tetrahydro-N-1-piperidinyl-1H-indazole-3-carboxamide (60 μL, 10 mM) was added to N13. The control was serially diluted 1/3 by transferring and mixing 20 μl sample with 40 μL DMSO. This process resulted 11 doses per control, 10 mM to […].
(§6) Cells plated the day prior to the assay in clear bottom plates were viewed on an inverse microscope to ensure confluency in the range of 60-75%. […]

[2] = target: Human CB1R (Cannabanoid receptor 1) (Homo sapiens (Human), UniProt P21554); test: CB-1 in vitro cAMP assay (HTRF); format: cell-based; conditions: mean where tested more than once
Sequence of Human CB1R (Cannabanoid receptor 1) (P21554 whole entry): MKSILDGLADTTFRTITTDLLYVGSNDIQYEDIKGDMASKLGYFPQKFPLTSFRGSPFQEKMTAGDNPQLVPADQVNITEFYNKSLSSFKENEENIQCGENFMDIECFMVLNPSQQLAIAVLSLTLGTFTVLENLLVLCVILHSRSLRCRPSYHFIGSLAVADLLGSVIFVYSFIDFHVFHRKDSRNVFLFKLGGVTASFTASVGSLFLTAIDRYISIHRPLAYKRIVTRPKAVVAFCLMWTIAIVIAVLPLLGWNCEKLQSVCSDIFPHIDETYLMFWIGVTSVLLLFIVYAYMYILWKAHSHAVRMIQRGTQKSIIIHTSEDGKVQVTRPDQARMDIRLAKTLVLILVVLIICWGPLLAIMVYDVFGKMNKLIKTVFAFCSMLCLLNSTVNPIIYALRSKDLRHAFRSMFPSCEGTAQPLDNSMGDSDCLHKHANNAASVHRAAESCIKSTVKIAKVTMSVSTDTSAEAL
Source text: as §1, §2, §3, §4, §5, §6

Sequence of Human CB2R (Cannabanoid receptor 2) (P34972 whole entry): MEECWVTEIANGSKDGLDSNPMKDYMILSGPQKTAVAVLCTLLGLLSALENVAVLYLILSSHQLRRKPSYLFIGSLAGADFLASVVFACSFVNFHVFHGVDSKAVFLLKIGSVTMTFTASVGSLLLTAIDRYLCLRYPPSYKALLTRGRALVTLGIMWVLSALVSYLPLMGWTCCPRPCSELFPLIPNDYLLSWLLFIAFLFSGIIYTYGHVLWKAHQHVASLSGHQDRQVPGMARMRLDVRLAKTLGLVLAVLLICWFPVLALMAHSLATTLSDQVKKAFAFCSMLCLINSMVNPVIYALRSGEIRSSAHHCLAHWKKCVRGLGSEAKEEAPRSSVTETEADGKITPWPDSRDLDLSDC

Row | EC50 [1] [nM] | EC50 [2] [nM] | SMILES
1 | 8200 | 34 | C[C@@H](Nc1ncnc2ccc(C(c3ccc(Cl)cc3)c3ccc(Cl)cc3)cc12)c1cccc(C(F)(F)F)c1 (single isomer, unassigned) [compound 115]
2 | > 10000 | 12 | N#Cc1ccc(S(=O)(=O)N2CCC(Nc3ncnc4ccc(C(c5ccc(Cl)cc5)c5ccc(Cl)cc5)cc34)CC2)cc1 [Compound #52, 4-((4-((6-(bis(4-chlorophenyl)methyl)quinazolin-4-yl)amino)piperidin-1-yl)sulfonyl)benzonitrile]
3 | > 10000 | 98 | CC(=O)NCCOc1nc(NCc2ccc(C(F)(F)F)cc2)c2cc(C(c3ccc(Cl)cc3)c3ccc(Cl)cc3)ccc2n1 [Compound #69, N-(2-((6-(bis(4-chlorophenyl)methyl)-4-((4-(trifluoromethyl)benzyl)amino)quinazolin-2-yl)oxy)ethyl)acetamide]
4 | 5690 | 32 | O=S(=O)(N1CCC(Nc2nc(O)nc3ccc(C(c4ccc(Cl)cc4)c4ccc(Cl)cc4)cc23)CC1)C(F)(F)F [Compound #114, 6-(bis(4-chlorophenyl)methyl)-4-((1-((trifluoromethyl)sulfonyl)piperidin-4-yl)amino)quinazolin-2-ol]
5 | 910 | 5 | O=C(c1ccccc1)N1CCC(Nc2ncnc3ccc(C(c4ccc(Cl)cc4)c4ccc(Cl)cc4)cc23)CC1 [compound 119, (4-(6-(bis(4-chlorophenyl)methyl)quinazolin-4-ylamino)piperidin-1-yl)(phenyl)methanone]
6 | > 10000 | 5 | [N-]=[N+]=NCCOc1nc(NCc2ccc(C(F)(F)F)cc2)c2cc(C(c3ccc(Cl)cc3)c3ccc(Cl)cc3)ccc2n1 [Compound #75, 2-(2-azidoethoxy)-6-(bis(4-chlorophenyl)methyl)-N-(4-(trifluoromethyl)benzyl)quinazolin-4-amine]
7 | > 10000 | 11 | N#CCCOCCOc1nc(NCc2cccc(C(F)(F)F)c2)c2cc(C(c3ccc(Cl)cc3)c3ccc(Cl)cc3)ccc2n1 [Compound #50, 3-(2-((6-(bis(4-chlorophenyl)methyl)-4-((3-(trifluoromethyl)benzyl)amino)quinazolin-2-yl)oxy)ethoxy)propanenitrile]
8 | > 10000 | 574 | O=S(=O)(c1ccc(Nc2ncnc3ccc(C(c4ccc(Cl)cc4)c4nccs4)cc23)cc1)C(F)(F)F (stereo not drawn) [Compound #142, 6-((4-chlorophenyl)(thiazol-2-yl)methyl)-N-(4-((trifluoromethyl)sulfonyl)phenyl)quinazolin-4-amine]

The remaining lines, values behind:

Row | SMILES | EC50 [1] [nM] | EC50 [2] [nM]
9 | NC(=O)c1ccc(CN2CCC(Nc3ncnc4ccc(C(c5ccc(Cl)cc5)c5ccc(Cl)cc5)cc34)CC2)cc1 [compound 38, 4-((4-(6-(bis(4-chlorophenyl)methyl)quinazolin-4-ylamino)piperidin-1-yl)methyl)benzamide] | 3570 | 191
10 | COC(=O)c1cccc(N2CCC(Nc3ncnc4ccc(C(c5ccc(Cl)cc5)c5ccc(Cl)cc5)cc34)CC2)c1 [compound 97, methyl 3-(4-(6-(bis(4-chlorophenyl)methyl)quinazolin-4-ylamino)piperidin-1-yl)benzoate] | > 10000 | 83
11 | O=S(=O)(c1ccc(Nc2ncnc3ccc(C(c4ccc(Cl)cc4)c4ccc(Cl)cc4)cc23)cc1)C(F)(F)F [Compound #134, 6-(bis(4-chlorophenyl)methyl)-N-(4-((trifluoromethyl)sulfonyl)phenyl)quinazolin-4-amine] | > 10000 | 194
12 | N#Cc1ccc(C(c2ccc(Cl)cc2)c2ccc3ncnc(NC4CCN(S(=O)(=O)C(F)(F)F)CC4)c3c2)cc1 (stereo not drawn) [Compound #19, 4-((4-chlorophenyl)(4-((1-((trifluoromethyl)sulfonyl)piperidin-4-yl)amino)quinazolin-6-yl)methyl)benzonitrile] | 157 | 6
13 | O=S(=O)(c1ccc(O)cc1)N1CCC(Nc2ncnc3ccc(C(c4ccc(Cl)cc4)c4ccc(Cl)cc4)cc23)CC1 [Compound #8] | 248 | 8
14 | NC(=O)CCC(=O)N1CCC(Nc2ncnc3ccc(C(c4ccc(Cl)cc4)c4ccc(Cl)cc4)cc23)CC1 [Compound #86, 4-(4-((6-(bis(4-chlorophenyl)methyl)quinazolin-4-yl)amino)piperidin-1-yl)-4-oxobutanamide] | 9000 | 2460
15 | Oc1ccc(N2CCC(Nc3ncnc4ccc(C(c5ccc(Cl)cc5)c5ccc(Cl)cc5)cc34)CC2)cc1 [Compound #32, 4-(4-((6-(bis(4-chlorophenyl)methyl)quinazolin-4-yl)amino)piperidin-1-yl)phenol] | 371 | 15
16 | O=S(=O)(c1ccccn1)N1CCC(Nc2ncnc3ccc(C(c4ccc(Cl)cc4)c4ccc(Cl)cc4)cc23)CC1 [compound 111, 6-(bis(4-chlorophenyl)methyl)-N-(1-(pyridin-2-ylsulfonyl)piperidin-4-yl)quinazolin-4-amine] | 2740 | 15
17 | COc1nc(NC2CCN(S(=O)(=O)c3ccc(C(=O)O)cc3)CC2)c2cc(C(c3ccc(Cl)cc3)c3ccc(Cl)cc3)ccc2n1 [Compound #46, 4-((4-((6-(bis(4-chlorophenyl)methyl)-2-methoxyquinazolin-4-yl)amino)piperidin-1-yl)sulfonyl)benzoic acid] | 616 | 31
18 | O=C(O)CC(=O)N1CCC(Nc2ncnc3ccc(C(c4ccc(Cl)cc4)c4ccc(Cl)cc4)cc23)CC1 [compound 88, 3-(4-(6-(bis(4-chlorophenyl)methyl)quinazolin-4-ylamino)piperidin-1-yl)-3-oxopropanoic acid] | > 10000 | 799
19 | O=C(O)c1ccc(C(=O)N2CCC(Nc3ncnc4ccc(C(c5ccc(Cl)cc5)c5ccc(Cl)cc5)cc34)CC2)cc1 [Compound #68, 4-(4-((6-(bis(4-chlorophenyl)methyl)quinazolin-4-yl)amino)piperidine-1-carbonyl)benzoic acid] | > 10000 | 950
20 | COC(=O)Cc1ccc(N2CCC(Nc3ncnc4ccc(C(c5ccc(Cl)cc5)c5ccc(Cl)cc5)cc34)CC2)cc1 [Compound #79, Methyl 2-(4-(4-((6-(bis(4-chlorophenyl)methyl)quinazolin-4-yl)amino)piperidin-1-yl)phenyl)acetate] | 173 | 4
21 | O=S1(=O)CCN(CCNc2ncnc3ccc(C(c4ccc(Cl)cc4)c4ccc(Cl)cc4)cc23)CC1 [Compound #6, 4-(2-((6-(bis(4-chlorophenyl)methyl)quinazolin-4-yl)amino)ethyl)thiomorpholine 1,1-dioxide] | 455 | 35
22 | COC(=O)c1cccc(CNc2ncnc3ccc(C(c4ccc(Cl)cc4)c4ccc(Cl)cc4)cc23)c1 [Compound #62, Methyl 3-(((6-(bis(4-chlorophenyl)methyl)quinazolin-4-yl)amino)methyl)benzoate] | 8080 | 14
23 | O=C(c1ccc(S(=O)(=O)NCCO)cc1)N1CCC(Nc2ncnc3ccc(C(c4ccc(Cl)cc4)c4ccc(Cl)cc4)cc23)CC1 [Compound #45, 4-(4-((6-(bis(4-chlorophenyl)methyl)quinazolin-4-yl)amino)piperidine-1-carbonyl)-N-(2-hydroxyethyl)benzenesulfonamide] | 1200 | 222
24 | O=C(O)c1ccc(S(=O)(=O)N2CCC(Nc3ncnc4ccc(C(c5ccc(Cl)cc5)c5ccc(Cl)cc5)cc34)CC2)cc1Cl [Compound #23, 4-((4-((6-(bis(4-chlorophenyl)methyl)quinazolin-4-yl)amino)piperidin-1-yl)sulfonyl)-2-chlorobenzoic acid] | 434 | 19

— US9682955B2, “Quinazoline derivatives useful as CB-1 inverse agonists” (Janssen Pharmaceutica NV, priority 2014, dated 2017)
